Test results: patent publication US20090304725A1, “Vaccine and Antigen Mimotopes Against Cancerous Diseases Associated with the Carcinoembryonic Antigen CEA” (Medizinische Universitat Wien, priority 2006, published 2009)
Bridge positions count the residues as written; N and C are the ends. Ends that are not written are not given here.

Columns and labels:
[1] = tested on: HT29 CEA overexpressing cells; experiment: Antibody-dependent cytotoxicity (ADCC) assay, CytoTox 96; type: cell-based; settings: pooled fifth immune sera of immunized mice diluted 1:50; naive BALB/c spleen cells as effector cells
Protocol: (§1) FIG. 7: ADCC reaction in vitro. Effects of the antibody-dependent cytotoxicity. The reaction was determined against the CEA positive cell line HT 29 and against the CEA negative cell line SW 480. The CEA-MAP serum was used 1:50 (black columns; 1). The mice immunized with a control-MAP (2) or alum alone (3) and the Col-1 antibody (4) were used as negative controls.
(§2) Complement-dependent cytotoxicity (CDC) and antibody-dependent-cytotoxicity (ADCC) effectivity of the antibodies induced by mimotope vaccination were measured with the CytoTox 96 Nonradioactive Cytotoxicity assay (Promega, Madison, Wis.). HT29 CEA overexpressing cells were used as positive target cells. SW480 CEA-negative colon cancer cells served as a negative target control cell line. The number of both target cells was optimized to 2×10^5 cells/ml. For CDC reactions (FIG. 6), pooled fifth immune sera were diluted 1:50 (1) or 1:100 (2) in CytoTox 96 assay medium. Additionally, the antibody Col-1 (3), an IgG2a (4) and an IgM (5) antibody (Sigma, Vienna, Austria) served as negative controls. Spleen cells of naïve BALB/c mice were prepared by mashing the spleen and lysing the erythrocytes with ammonium chloride and used as effector cells. […] All assay procedures and readouts were done as described in the manufacturers description. […] The results of the cytotoxicity was calculated as follows: […]

[2] = tested on: SW480 CEA-negative colon cancer cells; experiment: Cytotoxicity assay on CEA-negative control cell line; type: cell-based; settings: sera of immunized mice
Protocol: (§3) FIG. 6: CDC reaction in vitro. Effects of the mimotope induced antibodies in mediating complement-dependent cytotoxicity. The reaction was determined against the CEA positive cell line HT 29 and against the CEA negative cell line SW 480. Mouse immune sera in different concentrations were tested on the two cell lines. Sera from CEA-MAM immunized mice were used 1:50 (black columns; 1) and 1:100 (white column; 2). The antibody Col-1 (3), the isotype control antibodies IgG2a (4) and IgM (5) were used as negative controls.
as §1
Complement-dependent cytotoxicity (CDC) and antibody-dependent-cytotoxicity (ADCC) effectivity of the antibodies induced by mimotope vaccination were measured with the CytoTox 96 Nonradioactive Cytotoxicity assay (Promega, Madison, Wis.). HT29 CEA overexpressing cells were used as positive target cells. […] All assay procedures and readouts were done as described in the manufacturers description. […] The results of the cytotoxicity was calculated as follows: […]

[3] = tested on: HT29 CEA overexpressing cells; experiment: Complement-dependent cytotoxicity (CDC) assay, CytoTox 96; type: cell-based; settings: highest value corrected to 100%
Protocol: as §3
as §2, with “controls.” for “controls. Spleen cells of naïve BALB/c mice were prepared by mashing the spleen and lysing the erythrocytes with ammonium chloride and used as effector cells.”

[4] = tested on: CEA antigen binding to anti-CEA antibody Col-1; experiment: Mimicry test, competitive ELISA on coated CEA antigen with Col-1; design: species or system human; settings: phages at 5*10^10, 1*10^10, 1*10^9 particles per ml, simultaneously with Col-1
Protocol: FIG. 3: Mimicry analysis in ELISA competition assay. Coated CEA antigen is detected by Col-1 antibody, rendering a maximal signal of 1,4. Simultaneous incubation was done with titrated phage clones (white columns highest, grey: medium, black: least concentration of phage clones). Bound Col-1 was detected with anti-mouse IgG-peroxidase labelled. X-axis: clone names, Y-axis: colour intensity at OD450-630 nm.
The CEA antigen (human purified; Sigma, St. Louis) was used for coating ELISA plates. After blocking and washing, mimotopes phages were added to wells in three concentrations (5*10^10, 1*10^10, 1*10^9 particles per ml) simultaneously with antibody Col-1. In a final step, bound Col-1 antibody was detected by a peroxidase-labeled anti-mouse antibody. TMB substrate (BD Biosciences, San Diego, Calif.) was added for development of the colour and signal intensity measured in ELISA reader at OD450-630. […] This assay evidenced that selected mimotopes are mimics of the Col-1 epitope on CEA antigen.

[5] = target: CEA antigen (human purified; Sigma, St. Louis) (human) (UniProt P06731); experiment: ELISA, CEA coated, bound Col-1 detected with anti-mouse IgG-peroxidase (FIG. 3)
Sequence of UniProt P06731 (P06731 35-685 limits assumed): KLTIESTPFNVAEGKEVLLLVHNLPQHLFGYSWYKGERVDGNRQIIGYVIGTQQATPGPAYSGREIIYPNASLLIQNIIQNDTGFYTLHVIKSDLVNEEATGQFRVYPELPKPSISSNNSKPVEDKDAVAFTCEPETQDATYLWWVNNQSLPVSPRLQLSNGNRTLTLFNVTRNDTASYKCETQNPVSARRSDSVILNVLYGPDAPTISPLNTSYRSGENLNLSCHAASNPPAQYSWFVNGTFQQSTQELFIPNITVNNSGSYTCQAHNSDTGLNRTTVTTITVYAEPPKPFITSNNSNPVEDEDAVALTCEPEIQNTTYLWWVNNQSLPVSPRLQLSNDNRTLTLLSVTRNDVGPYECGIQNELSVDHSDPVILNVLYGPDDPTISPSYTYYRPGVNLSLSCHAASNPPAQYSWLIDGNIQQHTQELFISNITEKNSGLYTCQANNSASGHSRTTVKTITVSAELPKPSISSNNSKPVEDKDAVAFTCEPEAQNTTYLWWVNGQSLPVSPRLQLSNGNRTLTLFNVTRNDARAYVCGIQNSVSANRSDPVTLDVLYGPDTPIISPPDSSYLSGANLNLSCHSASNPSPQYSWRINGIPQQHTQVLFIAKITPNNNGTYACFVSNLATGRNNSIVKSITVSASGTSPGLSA

Molecule: CC(C)C[C@H](NC(=O)CNC(=O)CNC(=O)[C@H](CCCNC(=N)N)NC(=O)[C@@H](N)CC(=O)O)C(=O)N[C@@H](Cc1c[nH]c2ccccc12)C(=O)N[C@@H](CCCCN)C(=O)N[C@H](C(=O)N1CCC[C@H]1C(=O)NCCCC[C@H](NC(=O)[C@@H]1CCCN1C(=O)[C@@H](NC(=O)[C@H](CCCCN)NC(=O)[C@H](Cc1c[nH]c2ccccc12)NC(=O)[C@H](CC(C)C)NC(=O)CNC(=O)CNC(=O)[C@H](CCCNC(=N)N)NC(=O)[C@@H](N)CC(=O)O)[C@@H](C)O)C(=O)NCCCC[C@H](NC(=O)[C@H](CCCCNC(=O)[C@@H]1CCCN1C(=O)[C@@H](NC(=O)[C@H](CCCCN)NC(=O)[C@H](Cc1c[nH]c2ccccc12)NC(=O)[C@H](CC(C)C)NC(=O)CNC(=O)CNC(=O)[C@H](CCCNC(=N)N)NC(=O)[C@@H](N)CC(=O)O)[C@@H](C)O)NC(=O)[C@@H]1CCCN1C(=O)[C@@H](NC(=O)[C@H](CCCCN)NC(=O)[C@H](Cc1c[nH]c2ccccc12)NC(=O)[C@H](CC(C)C)NC(=O)CNC(=O)CNC(=O)[C@H](CCCNC(=N)N)NC(=O)[C@@H](N)CC(=O)O)[C@@H](C)O)C(=O)NCC(=O)NCC(=O)N[C@@H](CSCC(=O)NCCCCCCNC(=O)CSC[C@H](NC(=O)CNC(=O)CNC(=O)[C@H](CCCCNC(=O)[C@H](CCCCNC(=O)[C@@H]1CCCN1C(=O)[C@@H](NC(=O)[C@H](CCCCN)NC(=O)[C@H](Cc1c[nH]c2ccccc12)NC(=O)[C@H](CC(C)C)NC(=O)CNC(=O)CNC(=O)[C@H](CCCNC(=N)N)NC(=O)[C@@H](N)CC(=O)O)[C@@H](C)O)NC(=O)[C@@H]1CCCN1C(=O)[C@@H](NC(=O)[C@H](CCCCN)NC(=O)[C@H](Cc1c[nH]c2ccccc12)NC(=O)[C@H](CC(C)C)NC(=O)CNC(=O)CNC(=O)[C@H](CCCNC(=N)N)NC(=O)[C@@H](N)CC(=O)O)[C@@H](C)O)NC(=O)[C@H](CCCCNC(=O)[C@@H]1CCCN1C(=O)[C@@H](NC(=O)[C@H](CCCCN)NC(=O)[C@H](Cc1c[nH]c2ccccc12)NC(=O)[C@H](CC(C)C)NC(=O)CNC(=O)CNC(=O)[C@H](CCCNC(=N)N)NC(=O)[C@@H](N)CC(=O)O)[C@@H](C)O)NC(=O)[C@@H]1CCCN1C(=O)[C@@H](NC(=O)[C@H](CCCCN)NC(=O)[C@H](Cc1c[nH]c2ccccc12)NC(=O)[C@H](CC(C)C)NC(=O)CNC(=O)CNC(=O)[C@H](CCCNC(=N)N)NC(=O)[C@@H](N)CC(=O)O)[C@@H](C)O)C(=O)O)C(=O)O)[C@@H](C)O [CEA-mimotope MAP]
- ADCC cytotoxicity [1]: 50%
- cytotoxic reaction on CEA negative cells [2]: no reaction
- CDC cytotoxicity ([3]; pooled fifth immune sera of immunized mice diluted 1:50): 100%
- CDC cytotoxicity ([3]; pooled fifth immune sera of immunized mice diluted 1:100): 51%

Molecule: C-RLALGDAKKY-C (CRLALGDAKKYC; disulfide 1-12; not fully specified; printed as C-RLALGDAKKY-C) [COL4, CEA mimotope selected from phage library with antibody Col-1]
- competition of phage-displayed mimotope with CEA for binding to Col-1 [4]: best candidate

B1: monoclonal antibody Col-1 (Zymed Lab., San Francisco, Calif.) (antibody, from another filing, V domains shown)
VH: EVQLQQSGAELVRSGASVKMSCTASGFNIKDYYMHWVKQRPEQGLEWIGWIDPENGDTEYAPKFQGKATMTTDTSSNTAYLQLSSLTSEDTAVYYCNTRGLSTMITTRWFFDVWGAGTTVAVSS
VL: DIVLTQSPASLTVSLGLRATISCRASKSVSASGYSYMHWYQQRPGQPPKLLIYLASNLQSGVPARFSGSGSGTDFTLNIHPVEEEDAATYYCQHSRELPTFGGGTKLEIK
- maximal signal (OD450-630 nm) [5]: 1.4 OD450-630 nm
